± gives the uncertainty stated by the source.
Assay: xn = mol fraction of the nth substance listed

CO + CCO
Settings	viscosity [mPa·s]
293.15 K, 101 kPa, x1 = 0.25	1.134 ± 0.014
293.15 K, 101 kPa, x1 = 0.5	0.809 ± 0.01
293.15 K, 101 kPa, x1 = 0.75	0.69 ± 0.009
293.15 K, 101.3 kPa, x1 = 0.114	1.1 ± 0.02
293.15 K, 101.3 kPa, x1 = 0.263	0.997 ± 0.014
293.15 K, 101.3 kPa, x1 = 0.501	0.849 ± 0.012
293.15 K, 101.3 kPa, x1 = 0.738	0.712 ± 0.01
293.15 K, 101.3 kPa, x1 = 0.856	0.651 ± 0.009
298.15 K, 101 kPa, x1 = 0.2045	0.94 ± 0.024
298.15 K, 101 kPa, x1 = 0.25	1.032 ± 0.013
298.15 K, 101 kPa, x1 = 0.3971	0.832 ± 0.021
298.15 K, 101 kPa, x1 = 0.5	0.747 ± 0.009
298.15 K, 101 kPa, x1 = 0.5962	0.729 ± 0.018
298.15 K, 101 kPa, x1 = 0.75	0.639 ± 0.008
298.15 K, 101 kPa, x1 = 0.7975	0.634 ± 0.016
298.15 K, 101.33 kPa, x1 = 0.0889	1.045 ± 0.036
298.15 K, 101.33 kPa, x1 = 0.146	1.008 ± 0.034
298.15 K, 101.33 kPa, x1 = 0.2385	0.95 ± 0.033
298.15 K, 101.33 kPa, x1 = 0.3311	0.896 ± 0.031
298.15 K, 101.33 kPa, x1 = 0.4041	0.855 ± 0.03
298.15 K, 101.33 kPa, x1 = 0.5234	0.791 ± 0.028
298.15 K, 101.33 kPa, x1 = 0.6076	0.747 ± 0.026
298.15 K, 101.33 kPa, x1 = 0.7136	0.694 ± 0.025
298.15 K, 101.33 kPa, x1 = 0.8128	0.643 ± 0.023
298.15 K, 101.33 kPa, x1 = 0.9156	0.594 ± 0.022
303.15 K, 101 kPa, x1 = 0.25	0.939 ± 0.012
303.15 K, 101 kPa, x1 = 0.5	0.69 ± 0.009
303.15 K, 101 kPa, x1 = 0.75	0.594 ± 0.007
308.15 K, 101 kPa, x1 = 0.2045	0.791 ± 0.02
308.15 K, 101 kPa, x1 = 0.25	0.858 ± 0.011
308.15 K, 101 kPa, x1 = 0.3971	0.706 ± 0.018
308.15 K, 101 kPa, x1 = 0.5	0.638 ± 0.008
308.15 K, 101 kPa, x1 = 0.5962	0.625 ± 0.016
308.15 K, 101 kPa, x1 = 0.75	0.552 ± 0.007
308.15 K, 101 kPa, x1 = 0.7975	0.548 ± 0.014
313.15 K, 101 kPa, x1 = 0.25	0.784 ± 0.01
313.15 K, 101 kPa, x1 = 0.5	0.593 ± 0.007
313.15 K, 101 kPa, x1 = 0.75	0.515 ± 0.006
313.15 K, 101.3 kPa, x1 = 0.114	0.77 ± 0.011
313.15 K, 101.3 kPa, x1 = 0.263	0.709 ± 0.01
313.15 K, 101.3 kPa, x1 = 0.501	0.615 ± 0.009
313.15 K, 101.3 kPa, x1 = 0.738	0.531 ± 0.008
313.15 K, 101.3 kPa, x1 = 0.856	0.491 ± 0.007
318.15 K, 101 kPa, x1 = 0.2045	0.667 ± 0.017
318.15 K, 101 kPa, x1 = 0.25	0.718 ± 0.009
318.15 K, 101 kPa, x1 = 0.3971	0.599 ± 0.015
318.15 K, 101 kPa, x1 = 0.5	0.551 ± 0.007
318.15 K, 101 kPa, x1 = 0.5962	0.531 ± 0.013
318.15 K, 101 kPa, x1 = 0.75	0.482 ± 0.006
318.15 K, 101 kPa, x1 = 0.7975	0.474 ± 0.012
323.15 K, 101 kPa, x1 = 0.25	0.661 ± 0.008
323.15 K, 101 kPa, x1 = 0.5	0.513 ± 0.006
323.15 K, 101 kPa, x1 = 0.75	0.452 ± 0.006

COC(=O)OC + CCO
101.3 kPa
Settings	viscosity [mPa·s]
293.15 K, x1 = 0.0498	1.07 ± 0.052
293.15 K, x1 = 0.0978	0.974 ± 0.048
293.15 K, x1 = 0.176	0.853 ± 0.043
293.15 K, x1 = 0.2928	0.74 ± 0.038
293.15 K, x1 = 0.4053	0.675 ± 0.035
293.15 K, x1 = 0.4981	0.646 ± 0.034
293.15 K, x1 = 0.5982	0.625 ± 0.033
293.15 K, x1 = 0.6962	0.613 ± 0.033
293.15 K, x1 = 0.8024	0.609 ± 0.033
293.15 K, x1 = 0.8894	0.607 ± 0.033
293.15 K, x1 = 0.9516	0.618 ± 0.033
298.15 K, x1 = 0.0598	0.966 ± 0.048
298.15 K, x1 = 0.095	0.897 ± 0.045
298.15 K, x1 = 0.1692	0.786 ± 0.04
298.15 K, x1 = 0.2725	0.685 ± 0.036
298.15 K, x1 = 0.3854	0.625 ± 0.033
298.15 K, x1 = 0.4778	0.594 ± 0.032
298.15 K, x1 = 0.5686	0.573 ± 0.031
298.15 K, x1 = 0.6777	0.561 ± 0.031
298.15 K, x1 = 0.7915	0.555 ± 0.03
298.15 K, x1 = 0.8775	0.556 ± 0.03
298.15 K, x1 = 0.9366	0.565 ± 0.031
303.15 K, x1 = 0.0673	0.832 ± 0.042
303.15 K, x1 = 0.1142	0.752 ± 0.039
303.15 K, x1 = 0.2249	0.627 ± 0.033
303.15 K, x1 = 0.2894	0.588 ± 0.032
303.15 K, x1 = 0.3906	0.541 ± 0.03
303.15 K, x1 = 0.4848	0.521 ± 0.029
303.15 K, x1 = 0.5996	0.512 ± 0.028
303.15 K, x1 = 0.6931	0.513 ± 0.028
303.15 K, x1 = 0.8038	0.512 ± 0.028
303.15 K, x1 = 0.9072	0.52 ± 0.029
303.15 K, x1 = 0.9462	0.527 ± 0.029
313.15 K, x1 = 0.0504	0.731 ± 0.038
313.15 K, x1 = 0.0934	0.662 ± 0.035
313.15 K, x1 = 0.2082	0.535 ± 0.029
313.15 K, x1 = 0.3087	0.472 ± 0.027
313.15 K, x1 = 0.393	0.45 ± 0.026
313.15 K, x1 = 0.5026	0.44 ± 0.025
313.15 K, x1 = 0.6011	0.438 ± 0.025
313.15 K, x1 = 0.7052	0.44 ± 0.025
313.15 K, x1 = 0.7968	0.445 ± 0.026
313.15 K, x1 = 0.9075	0.463 ± 0.026
313.15 K, x1 = 0.9507	0.475 ± 0.027

ClC(Cl)C(Cl)Cl + CCO
viscosity [mPa·s], 101.32 kPa
Settings	x2 = 0.167	x2 = 0.3109	x2 = 0.4362	x2 = 0.5461	x2 = 0.6435	x2 = 0.7303	x2 = 0.8081	x2 = 0.8783	x2 = 0.942
303.15 K	1.369 ± 0.14	1.324 ± 0.13	1.257 ± 0.13	1.21 ± 0.12	1.166 ± 0.12	1.12 ± 0.11	1.095 ± 0.11	1.047 ± 0.11	1.026 ± 0.1
313.15 K	1.24 ± 0.12	1.16 ± 0.12	1.107 ± 0.11	1.049 ± 0.11	1.007 ± 0.1	0.965 ± 0.097	0.934 ± 0.094	0.903 ± 0.091	0.868 ± 0.087
323.15 K	1.121 ± 0.11	1.068 ± 0.11	0.961 ± 0.096	0.91 ± 0.091	0.869 ± 0.087	0.819 ± 0.082	0.795 ± 0.08	0.787 ± 0.079	0.732 ± 0.073

COCCOCCOC + CCOC(=O)CCC(=O)OCC
viscosity [mPa·s], 101.33 kPa
Settings	x1 = 0.1002	x1 = 0.2023	x1 = 0.3012	x1 = 0.4033	x1 = 0.5032	x1 = 0.6024	x1 = 0.7034	x1 = 0.801	x1 = 0.9025
298.15 K	2.198 ± 0.027	2.009 ± 0.025	1.843 ± 0.023	1.681 ± 0.021	1.535 ± 0.019	1.412 ± 0.018	1.296 ± 0.016	1.187 ± 0.015	1.077 ± 0.014
303.15 K	1.951 ± 0.024	1.792 ± 0.022	1.65 ± 0.02	1.513 ± 0.019	1.386 ± 0.017	1.283 ± 0.016	1.184 ± 0.015	1.086 ± 0.014	0.994 ± 0.013
308.15 K	1.737 ± 0.022	1.599 ± 0.02	1.476 ± 0.018	1.355 ± 0.017	1.251 ± 0.016	1.163 ± 0.015	1.082 ± 0.014	0.997 ± 0.013	0.92 ± 0.012
313.15 K	1.559 ± 0.02	1.438 ± 0.018	1.33 ± 0.017	1.229 ± 0.016	1.139 ± 0.014	1.061 ± 0.014	0.989 ± 0.013	0.919 ± 0.012	0.852 ± 0.011
318.15 K	1.406 ± 0.018	1.299 ± 0.016	1.206 ± 0.015	1.115 ± 0.014	1.034 ± 0.013	0.969 ± 0.013	0.908 ± 0.012	0.849 ± 0.011	0.792 ± 0.01

COCCOCCOC + CCOC(=O)OCC
viscosity [mPa·s], 101.33 kPa
Settings	298.15 K	308.15 K	318.15 K
x1 = 0.0487	0.761 ± 0.01	0.669 ± 0.009	0.572 ± 0.03
x1 = 0.0871	0.774 ± 0.01	0.674 ± 0.009	0.593 ± 0.008
x1 = 0.1367	0.787 ± 0.01	0.68 ± 0.009	0.6 ± 0.008
x1 = 0.18	0.798 ± 0.01	0.687 ± 0.009	0.607 ± 0.008
x1 = 0.2621	0.817 ± 0.01	0.706 ± 0.009	0.618 ± 0.008
x1 = 0.306	0.828 ± 0.011	0.713 ± 0.009	0.626 ± 0.008
x1 = 0.3935	0.849 ± 0.011	0.731 ± 0.01	0.64 ± 0.009
x1 = 0.4303	0.857 ± 0.011	0.739 ± 0.01	0.652 ± 0.009
x1 = 0.4835	0.87 ± 0.011	0.747 ± 0.01	0.656 ± 0.009
x1 = 0.557	0.886 ± 0.011	0.766 ± 0.01	0.665 ± 0.009
x1 = 0.6202	0.899 ± 0.011	0.772 ± 0.01	0.674 ± 0.009
x1 = 0.6549	0.907 ± 0.011	0.783 ± 0.01	0.679 ± 0.009
x1 = 0.7104	0.92 ± 0.012	0.79 ± 0.01	0.687 ± 0.009
x1 = 0.7618	0.933 ± 0.012	0.799 ± 0.01	0.695 ± 0.009
x1 = 0.8134	0.945 ± 0.012	0.809 ± 0.01	0.702 ± 0.009
x1 = 0.8478	0.952 ± 0.012	0.814 ± 0.01	0.707 ± 0.009
x1 = 0.938	0.97 ± 0.012	0.825 ± 0.011	0.719 ± 0.009
x1 = 0.9718	0.979 ± 0.012	0.832 ± 0.011	0.725 ± 0.009
x2 = 0.0073	0.987 ± 0.012	0.837 ± 0.011	0.727 ± 0.009

— the CheMixHub viscosity set
